{"source": "patent US4912116A", "about": "“Propiophenone derivatives for treatment of pollakiuria (frequency urination)” (Hokuriku Pharmaceutical Co., Ltd., priority 1986, dated 1990)", "tested_on": "micturition reflex (rhythmic bladder contractions)", "experiment": "Inhibition of micturition reflex (rhythmic bladder contractions) in unanesthetized, gallamine-immobilized rats", "type": "in vivo, Male Wister rats", "conditions": "for Disappearance time (of bladder contractions): i.v., 4 rats, mean ± S.E., saline 9.0 ± 1.8; for Inhibition Rate: i.d., 15 min after administration, 0.5% CMC 11.9 ± 7.9", "experimental": "statistical analysis: Each data of Experiment 1-6 represents the mean±S.E. statistical analysis of the data was performed using student's t-test.\nMale Wister rats weighing about 300 g (in case of intraduodenal administration, fasted more than 15 hours) were anesthetized with ether and immobilized with gallamine (5 mg/kg, i.v.) and fixed on their back. As soon as that procedure was finished anesthesia was discontinuted.\nIn the experiment, infusion of gallamine, 13 mg/kg/hr, i.v. (in case of intraduodenum administration, 10 mg/kg/hr, i.v.) was continuted, and artificial respiration was performed (90 times/min, 3 ml air/time).\nThen, through a midline incision of the abdomen, the urinary bladder was exposed; a small incision provided therein, and a balloon (capacity about 1 ml) was inserted into the bladder dome.\nThe balloon was connected to a pressure transducer and variations of inside pressure were recorded on a recorder.\nMicturition reflex was elicited by raising the balloon pressure 10-20 cm H2 O.\nIn case of intravenous administration, the drug was administrated through a cannula inserted into the left jugular vein, and in case of intraduodenal administration the drug was administrated through a cannula inserted into the duodenum from outside the stomach.\nIn case of intravenous administration, the effect of the drug was represented by the disappearance time of bladder contractions caused by micturition reflex.\nIn case of intraduodenal administration, the sum total of amplitude of bladder contractions caused by micturition reflex was calculated during each five minutes at 5 min before and 15, 30, 45, 60, 75, 90, 105 and 120 min after the administration.\nThen, inhibition rate was calculated by the sum total of amplitude of bladder contractions at each point compared with that before the administration."}
{"smiles": "CCc1ccc(C(=O)C(C)CN2CCCC2)cc1", "note": "(centres unmarked) [Compound 1]", "values": [{"measurement": "Disappearance time (of bladder contractions)", "setting": "4 mg/kg", "value": "52.8 ± 23.4", "unit": "min"}, {"measurement": "Disappearance time (of bladder contractions)", "setting": "8 mg/kg, * p < 0.05 vs control", "value": "249.0 ± 45.0", "unit": "min"}, {"measurement": "Inhibition Rate", "setting": "12.5 mg/kg, * p < 0.05", "value": "36.1 ± 4.4", "unit": "%"}, {"measurement": "Inhibition Rate", "setting": "25 mg/kg, ** p < 0.01", "value": "53.8 ± 6.9", "unit": "%"}, {"measurement": "Inhibition Rate", "setting": "50 mg/kg, ** p < 0.01", "value": "87.9 ± 5.1", "unit": "%"}]}
